Laboratory results reported in patent US20230414615A1, “PYRIMIDINONE COMPOUNDS FOR TREATING ACUTE INFLAMMATION” (TES Pharma S.r.l., priority 2022, published 2023).

What was measured:
[1] = mRNA levels of mitochondrial and oxidative stress genes (cell type not stated); format: cell-based; details: 100 μM
[2] = system: preclinical model of liver and kidney diseases; assay: Preclinical model of liver and kidney diseases (NASH, AKI); details: in vivo
[3] = system: co-culture of primary hepatocytes and stellate cells; assay: Gene expression in co-culture of primary hepatocytes and stellate cells after free fatty acid mix; format: cell-based; details: 5 μM; after 6 hr exposure to palmitate (0.33 mM) and oleate (0.66 mM)
[4] = system: co-culture of primary hepatocytes and stellate cells; assay: Cytokine secretion in co-culture of primary hepatocytes and stellate cells following LPS-induced inflammation; format: cell-based; details: LPS 50 ng/mL
[5] = system: CLP-induced sepsis model in mice; assay: CLP-induced sepsis model in mice (ex-vivo kidney gene expression, survival); parameters: species or system mouse; details: IP 30 mg/kg/dose
Description: C57BL/6 mice (12-15 weeks old) (obtained from Charles River Laboratories) were anesthetized by intraperitoneal (i.p.) injection of a 1:1 solution of ketamine (75 mg/kg) and xylazine (15 mg/kg) (or pentobarbital (70 mg/kg)). The lower abdomen of the mouse was shaved and the area disinfected with a 70% alcohol swab. Under aseptic conditions, a 1 to 2 cm midline laparotomy was performed and the cecum exposed. The cecum was tightly ligated at the level of the second cecal artery with a 2.0 silk suture, perforated twice with a 22-gauge needle, and after expressing to allow for fecal matter to extrude, returned into the abdomen. The abdominal wall is then closed by planes using a running silk 4-0. Control animals underwent the same laparotomy and externalization of the cecum, but no ligation or perforation was performed. Animals were resuscitated with 1.0 mL of 0.9% normal saline, immediately after surgery via subcutaneous injection and recovered on thermal blankets under monitoring. Animals were then treated with 0.5 ml LRS (Q12 hours SQ for 3 days), ampicillin sulbactam (250 mg/kg Q12 hours IP for 3 days) and analgesic treatment (buprenorphine 0.05 mg/kg for 3 days).
ACMSD inhibitors (e.g. compounds of present disclosure, compound of Formula I, Ia, Ib, and II) were administered at two different timepoints: (a) an early phase timepoint i.e. at the time of CLP and (b) at 24 hours after CLP. […] Blood samples and target organ tissue (liver and kidney) were collected at the time of sacrificing for histology and biomarker measurements.
MATERIALS AND METHODS: Treatment with Compound I-18 in presence of LPS for 24 h has been performed to evaluate anti inflammatory properties and M1 to M2 transition. Renal tubular cells were stimulated with Compound I-18 and TGFβ for 16 hrs to evaluate the expression of genes involved in fibrosis. […] Survival percentage and liver gene modulation has been monitored in Sham groups, LPS and LPS+Compound 1-18 groups (n=8). […] Survival percentage and expression of genes involved in renal inflammation has been monitored.

liver and kidneys = assay: Transcription of mitochondrial genes in liver and kidneys after administration of ACMSD inhibitors; format: in vivo
[6] = system: kidney proximal tubular HK2 cells; assay: NAD+ biosynthesis in kidney proximal tubular HK2 cells; format: cell-based

## N#Cc1c(-c2cccs2)nc(SCc2cccc(CC(=O)O)c2)[nH]c1=O [Compound I-18]
[1]
  mRNA levels of mitochondrial and oxidative stress genes CS, Ndufa2, Cox2, Atp5g1, Sod1 and Sod2: increases
[2]
  effects in preclinical model of liver and kidney diseases, such as NASH and AKI: protective effects
[3]
  expression of TNFα: reduced
  expression of pro-fibrotic chemokine CTGF: reduces
  expression of pro-fibrotic cytokine TGF-β: reduces
  expression of the pro-fibrotic genes BAX, ACTA2, Col1A1, fibronectin, THBS-1 and TIMP2: reduces
[4]; 1 μM
  secretion of IL-1β: reduces
[4]
  secretion of TNFα: reduces
[5]
  expression of IL-1β in ex-vivo kidney tissue samples: reduced
  expression of MCP1 in ex-vivo kidney tissue samples: reduced
  expression of TNFα in ex-vivo kidney tissue samples: reduced
Liver and kidneys; kidneys
  expression of the same genes (Mcad, Cpt1a, Ndufa2, Atp5g1, Sod2) in the kidneys: unaffected
Liver and kidneys; liver
  transcription of the mitochondrial genes Mcad, Cpt1a, Ndufa2, Atp5g1 and Sod2 in the liver: induces
[6]
  NAD+ biosynthesis: restores
